For orientation: IC50 means the concentration that inhibits the measured activity by half.

Results on seven compounds are retold here after patent US20140148470A1, “PYRIMIDINE COMPOUNDS FOR TREATING HAIRLOSS” (Boehringer Ingelheim International GmbH, priority 2012, published 2014).

One assay has as its target T1, human CRTH2 (Homo sapiens, UniProt Q9Y5Y4).
T1 construct: expressed in transfected cells; host or cells: L1.2 cells (pEAK expression vector, puromycin selection)
T1 sequence (Q9Y5Y4 1-395): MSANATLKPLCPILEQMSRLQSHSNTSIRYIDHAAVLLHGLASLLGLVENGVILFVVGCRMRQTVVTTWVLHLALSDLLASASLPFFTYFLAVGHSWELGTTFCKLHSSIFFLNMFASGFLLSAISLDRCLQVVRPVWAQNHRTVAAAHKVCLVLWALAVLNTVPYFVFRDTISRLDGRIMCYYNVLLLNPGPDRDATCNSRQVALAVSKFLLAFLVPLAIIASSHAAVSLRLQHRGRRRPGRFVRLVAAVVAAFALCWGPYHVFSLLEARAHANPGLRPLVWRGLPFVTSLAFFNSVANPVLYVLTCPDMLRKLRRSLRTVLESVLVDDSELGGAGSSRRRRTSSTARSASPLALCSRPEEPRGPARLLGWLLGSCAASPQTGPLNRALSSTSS
Nature of the assay: Measurement of Ca2+ mobilization in the human CRTH2-transfected L1.2 cell line. Conditions: PGD2-induced Ca2+ mobilization, human CRTH2-transfected L1.2 cells; compounds as yielded by solid phase synthesis, purity about 40 to 90%; read-out: Activity class (IC50). It is filed as cell-based. From the text: [Preparation of Human CRTH2-Transfected L1. 2 Cell Line]
Human CRTH2 cDNA was amplified from human eosinophil cDNA with gene specific primers containing restriction sites for cloning into pEAK vector (Edge Bio Systems). The human CRTH2 cDNA was cloned into the mammalian expression vector pEAK. This expression plasmid ([…]) was transfected into L1. 2 cells, at a cell density of 1×10^7 cells/[…], by using electroporation apparatus (Gene Pulser II, BioRad) at 250V/[…]. One day after the transfection, puromycin (1 ug/mi, Sigma) was added into the cell culture plates. Two weeks after the transfection, grown cells were picked up for further growth.
[Measurement of Ca^2+ Mobilization in the Human CRTH2-Transfected L1. 2 Cell Line]
Ca^2+ loading buffer was prepared by mixing […] of Fluo-3AM (2 mM in DMSO, final 1 uM, Molecular Probes) and 10 µl of pluronic F-127 (Molecular Probes) and diluting the resulting mixture in 10 ml of Ca^2+ assay buffer (20 mM HEPES pH 7.6, 0.1% BSA, 1 mM probenecid, Hanks' solution). The CRTH2 transfected cells which were prepared in Example 1 were washed with PBS, resuspended in Ca2+ loading buffer at […] cells/ml, and incubated for 60 min at room temperature. After incubation, cells were washed and resuspended in Ca^2+ assay buffer, then dispensed into transparent-bottom 96-well plates (# 3631, Costar) at 2×10^5 cells/well. Cells were incubated with various concentrations of test compound for 5 minutes at room temperature. The emitted […] fluorescence was measured on FDSS6000, a Ca^2+-measurement apparatus (Hamamatsu Photonics, Hamamatsu, Japan).
The data corresponds to the compounds as yielded by solid phase synthesis and thus to levels of purity of about 40 to 90%. For practical reasons, the compounds are grouped in four classes of activity as follows: IC50=A (< or =) 10 nM<B (< or =) 100 nM<C (< or =) 500 nM<D. The compounds of the present invention also show excellent selectivity, and potent activity in Assays 2,3 and 4 described above.
For orientation: Calcium assays in cells follow changes in intracellular calcium, usually with a dye or a luminescent sensor.

In assay [1] the test system is explanted human hair follicles. The settings on record: cited from earlier work.
For the next assay, the target named is T2, CRTH2 (GPR44) (Mus musculus, UniProt Q9Z2J6).
T2 construct: host or cells: skin of wild-type mice, in vivo
T2 sequence (Q9Z2J6 1-382): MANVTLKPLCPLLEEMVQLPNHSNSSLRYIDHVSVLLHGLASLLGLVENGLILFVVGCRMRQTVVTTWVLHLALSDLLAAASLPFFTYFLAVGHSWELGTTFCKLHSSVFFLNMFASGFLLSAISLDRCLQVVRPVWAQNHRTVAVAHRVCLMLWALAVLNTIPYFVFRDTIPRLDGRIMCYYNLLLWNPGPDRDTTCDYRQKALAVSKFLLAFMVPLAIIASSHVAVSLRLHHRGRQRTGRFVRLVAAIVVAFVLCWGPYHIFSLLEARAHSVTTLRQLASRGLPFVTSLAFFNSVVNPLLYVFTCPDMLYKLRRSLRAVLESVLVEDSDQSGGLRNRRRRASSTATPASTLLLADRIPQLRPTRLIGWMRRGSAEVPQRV
The settings on record: topical to skin, cited from earlier work.

Like-named read-outs stand apart in the source and are kept apart here.

With `CN(C)c1nc(Cc2ccc(NC(=O)c3ccc4ccccc4c3)cc2)nc(Cl)c1CC(=O)O` [Example 1], at human CRTH2, the IC50 was below 10 nM.
`CN(C)c1nc(Cc2ccc(NC(=O)c3ccc4ccccc4c3)cc2)nc(Cl)c1CC(N)=O` [Example 22]: on human CRTH2, the IC50 is 10 to 100 nM.
Consider `O=C(O)Cc1c(Cl)nc(Cc2ccc(NC(=O)c3ccc4ccccc4c3)cc2)nc1Cl` [Example 20], for which the IC50 on human CRTH2 is below 10 nM.
Same read-out and setting: the figure for `CN(C)c1nc(Cc2ccc(NC(=O)c3ccc4ccccc4c3)cc2)nc(Cl)c1Cc1nnn[nH]1` [Example 21] is below 10 nM; for `CN(C)c1nc(Cc2ccc(NC(=O)c3ccc(C(F)(F)F)cc3)cc2)nc(N(C)C)c1CC(=O)O` [Example 14] it is below 10 nM; for `CN(C)c1nc(Cc2ccc(NC(=O)c3ccc4ccccc4c3)cc2)ncc1CC(=O)O` [Example 10] it is below 10 nM.
For the compound `CCCCC[C@H](O)/C=C/[C@H]1C(=O)C[C@H](O)[C@@H]1C/C=C\CCCC(=O)O` [PGD2, prostaglandin D2], the hair growth entry in assay [1] is listed as “inhibited hair growth”; at CRTH2 (GPR44) (CRTH2 (GPR44) knockout mice), “not”; on CRTH2 (GPR44) (wild-type mice), “inhibited hair growth”.
